Data set [1] deals with recombinant RORγ Ligand Binding Domain (LBD) protein (Homo sapiens (Human), UniProt P51449). Description: Radio-Ligand RORγ Binding Assay (Assay 1). As to conditions: cell-free competition with 25-hydroxy [26,27-3H]-cholesterol; read-out: RORγ Binding Ki Range* (nM) (Assay 1). As for the experimental part:
Radio-Ligand ROR ? Binding Assay (Assay 1)
The plate was shaken at 700 rpm for 20 min and incubated for 10 min at rt, after which 40 μL of poly-Lys YSi SPA beads (PerkinElmer, Cat. # RPNQ0010) were added to achieve 50 μg of the beads per well. The plate was incubated on an orbital shaker for 20 min and then for 10 min without agitation at rt. SPA signal for tritium beta radiation was registered on PerkinElmer Microbeta plate reader. […] The percent inhibition vs. concentration data were fit into a four-parameter model, and IC50 values were calculated from the fit as the concentrations corresponding to the inflection points on the dose-response curves.

Data set [2] concerns the target full-length RORγt in Jurkat cells (Homo sapiens (Human), UniProt P51449).
Description: ROR ? t 5×RORE Assay in Jurkat Cells (Assay 2)
Compounds of the present invention were tested for ROR ? inverse agonist activity in a cell-based, transcriptional activity assay. […] Luciferase activity in the conditioned supernatants was determined with NanoGlo® assay reagents (Promega, Cat.# N1130).
The target in data set [3] is hERG potassium ion channel (Homo sapiens (Human), UniProt Q12809). Put plainly: hERG Assay (Assay 4). The note with it: HEK293 cells stably transfected with hERG cDNA, pH 7.4, Compound at 3 μM, patch clamp, HEK 293 cells. The class given is cell-based. The procedure: Compounds of the invention were tested in vitro against the hERG (human ether-a-go-go-related gene) potassium ion channel (a surrogate for IKr, the rapidly activating delayed rectifier cardiac potassium ion channel).
The buffer was HEPES-buffered physiological saline (HB-PS) solution composed of: 137 mM NaCl, 4.0 mM KCl, 1.8 mM CaCl2, 1 mM MgCl2, 10 mM HEPES, 10 mM glucose, pH adjusted to 7.4 with NaOH, and 0.3% DMSO. Chemicals used in solution preparation were purchased from Sigma-Aldrich (St. Louis, Mo.), unless otherwise noted, and were of ACS reagent grade purity or higher.
HEK (human embryonic kidney) 293 cells were stably transfected with hERG cDNA.
For the patch clamp experiment, onset and steady state inhibition of hERG potassium current was measured using a pulse pattern with fixed amplitudes (depolarization: +20 mV for 2 s; repolarization: −50 mV for 2 s) repeated at 10 s intervals from a holding potential of −80 mV. Peak tail current was measured during the 2 s step to −50 mV. A steady state was maintained for at least 30 seconds before applying compound or positive control (cisapride). Peak tail currents were measured until a new steady state was achieved.
Data acquisition and analyses were performed using the suite of pCLAMP® (ver. 8.2) programs (MDS Analytical Technologies, Sunnyvale, Calif.). Steady state was defined by the limiting constant rate of change with time (linear time dependence). The steady state before and after each compound application was used to calculate the percentage of current inhibited at each concentration. Concentration-response data were fit to an equation of the following form: % Inhibition={1−1/[1+([Test]/IC50)N]}*100
where [Test] was the compound concentration, IC50 was the compound concentration at half-maximal inhibition, N was the Hill coefficient, and % Inhibition was the percentage of current inhibited at each compound concentration. Nonlinear least squares fits were solved with the Solver add-in for Excel 2003 (Microsoft, WA) and the IC50 was calculated.
(In general: The hERG channel carries a current that helps repolarise heart muscle cells.)

Where only a bound is given, the exact number is not on record here.

hERG potassium ion channel, sequence (Q12809 whole entry): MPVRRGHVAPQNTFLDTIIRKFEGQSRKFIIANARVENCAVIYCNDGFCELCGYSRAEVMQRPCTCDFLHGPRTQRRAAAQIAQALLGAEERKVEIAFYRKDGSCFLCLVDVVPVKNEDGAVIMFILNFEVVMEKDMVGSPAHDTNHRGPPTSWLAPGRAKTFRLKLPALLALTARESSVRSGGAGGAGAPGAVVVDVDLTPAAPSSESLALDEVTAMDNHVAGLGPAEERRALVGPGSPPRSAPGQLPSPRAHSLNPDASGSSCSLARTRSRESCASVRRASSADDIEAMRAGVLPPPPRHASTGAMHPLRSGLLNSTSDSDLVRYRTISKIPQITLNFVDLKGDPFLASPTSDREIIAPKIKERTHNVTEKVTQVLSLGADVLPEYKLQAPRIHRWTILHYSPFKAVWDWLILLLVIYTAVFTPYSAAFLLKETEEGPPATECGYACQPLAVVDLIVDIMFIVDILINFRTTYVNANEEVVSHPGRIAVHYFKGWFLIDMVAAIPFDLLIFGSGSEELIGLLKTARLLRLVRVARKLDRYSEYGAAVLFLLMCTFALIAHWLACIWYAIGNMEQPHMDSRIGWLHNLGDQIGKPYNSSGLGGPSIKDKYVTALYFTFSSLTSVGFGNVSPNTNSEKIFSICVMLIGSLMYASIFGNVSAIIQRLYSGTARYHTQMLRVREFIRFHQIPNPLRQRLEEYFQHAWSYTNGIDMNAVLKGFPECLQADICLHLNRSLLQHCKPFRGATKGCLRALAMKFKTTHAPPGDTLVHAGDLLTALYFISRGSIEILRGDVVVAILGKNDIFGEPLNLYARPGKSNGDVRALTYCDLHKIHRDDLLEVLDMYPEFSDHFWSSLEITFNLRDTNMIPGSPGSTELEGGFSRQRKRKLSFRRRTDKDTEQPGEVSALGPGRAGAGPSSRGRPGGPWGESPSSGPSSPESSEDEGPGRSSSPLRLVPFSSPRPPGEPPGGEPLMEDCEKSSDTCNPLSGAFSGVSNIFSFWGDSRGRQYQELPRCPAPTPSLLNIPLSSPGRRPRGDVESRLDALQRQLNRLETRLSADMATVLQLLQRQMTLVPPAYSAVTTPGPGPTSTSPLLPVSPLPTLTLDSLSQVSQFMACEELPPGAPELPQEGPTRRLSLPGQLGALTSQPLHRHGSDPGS
recombinant RORγ Ligand Binding Domain (LBD) protein, sequence (P51449 269-508): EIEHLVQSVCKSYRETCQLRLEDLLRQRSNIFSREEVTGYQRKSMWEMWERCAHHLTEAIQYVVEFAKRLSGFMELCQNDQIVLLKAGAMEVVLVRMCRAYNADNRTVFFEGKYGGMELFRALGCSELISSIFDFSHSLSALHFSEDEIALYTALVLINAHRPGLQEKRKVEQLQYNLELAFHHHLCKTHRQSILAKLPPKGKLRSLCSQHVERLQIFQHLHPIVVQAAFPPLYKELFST
full-length RORγt in Jurkat cells, sequence (P51449 other isoform, or with tags, fused parts or gaps): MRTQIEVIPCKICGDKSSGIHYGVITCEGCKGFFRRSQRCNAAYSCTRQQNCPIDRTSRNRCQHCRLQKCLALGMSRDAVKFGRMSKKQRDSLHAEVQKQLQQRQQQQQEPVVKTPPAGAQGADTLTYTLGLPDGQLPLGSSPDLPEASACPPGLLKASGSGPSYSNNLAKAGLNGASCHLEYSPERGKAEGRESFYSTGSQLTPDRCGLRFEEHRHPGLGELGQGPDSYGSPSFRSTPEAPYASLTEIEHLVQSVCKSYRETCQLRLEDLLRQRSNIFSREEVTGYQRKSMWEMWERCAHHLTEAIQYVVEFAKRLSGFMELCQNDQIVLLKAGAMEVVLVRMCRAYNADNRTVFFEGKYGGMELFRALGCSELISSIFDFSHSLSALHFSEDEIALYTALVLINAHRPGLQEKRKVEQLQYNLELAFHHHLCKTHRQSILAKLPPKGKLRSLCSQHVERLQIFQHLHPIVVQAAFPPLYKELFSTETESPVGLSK

`CC[C@H]1c2ncc(C(=O)N[C@@H](CO)c3ccc(S(=O)(=O)CC)cc3)cc2CN1C[C@H]1CC[C@H](C(F)(F)F)OC1` (single isomer, unassigned) [Compound 10]: in data set [1], the inhibitory constant (Ki) is less than 100 nM. Besides, the 50% inhibitory concentration (IC50) in data set [2] is less than 100 nM. In the case of `CC[C@H]1c2ncc(C(=O)N[C@@H](CO)c3ccc(S(=O)(=O)CC)cc3)cc2CN1C[C@@H]1CC[C@@H](C(F)(F)F)OC1` (single isomer, unassigned) [Compound 11], in data set [1], the Ki is less than 100 nM. This compound registered a concentration for half-maximal inhibition (IC50) in data set [2] of less than 100 nM. Turning to `CCS(=O)(=O)c1ccc([C@H](CO)NC(=O)c2cnc3c(c2)CN(C[C@H]2CC[C@H](C(F)(F)F)CO2)[C@H]3C(C)C)cc1` (single isomer, unassigned) [Compound 15], in data set [1], the inhibition constant (Ki) was less than 100 nM. Further, the IC50 in data set [2] is less than 100 nM. As to `CCS(=O)(=O)c1ccc([C@H](CO)NC(=O)c2cnc3c(c2)CN(C[C@@H]2CC[C@H](C(F)(F)F)CO2)[C@H]3C(C)C)cc1` (single isomer, unassigned) [Compound 18], the Ki in data set [1] is less than 100 nM. The compound also registered an IC50 in data set [2] of more than 1000 nM. The matching figures for `CCS(=O)(=O)c1ccc([C@H](CO)NC(=O)c2cnc3c(c2)CN(C[C@H]2CC[C@@H](C(F)(F)F)CO2)[C@H]3C(C)C)cc1` (single isomer, unassigned) [Compound 21]: less than 100 nM and more than 1000 nM. As for `CCS(=O)(=O)c1ccc([C@H](CO)NC(=O)c2cnc3c(c2)CN(C)[C@@H]3Cc2ccccc2)cc1` (single isomer, unassigned) [Compound 34], in data set [1], the inhibition constant Ki lay within 100 to 1000 nM. In the case of `CCS(=O)(=O)c1ccc([C@H](NC(=O)c2cnc3c(c2)CN(C[C@H]2CC[C@H](C(F)(F)F)CC2)[C@H]3C(C)C)[C@H](C)O)cc1` (single isomer, unassigned) [Compound 39], the Ki in data set [1] is less than 100 nM. Also, the IC50 in data set [2] was less than 100 nM. The inhibition at 3 µM in data set [3] was found to be 32.7%. Consider `CCS(=O)(=O)c1ccc([C@@H](NC(=O)c2cnc3c(c2)CN(C[C@H]2CC[C@H](C(F)(F)F)CC2)[C@H]3C(C)C)[C@@H](C)O)cc1` (single isomer, unassigned) [Compound 42], for which the Ki in data set [1] is less than 100 nM. In data set [2], this compound returned a half-inhibitory concentration (IC50) of less than 100 nM. For the same compound, the inhibition at 3 µM in data set [3] was 63.9%.

Regarding `CCS(=O)(=O)c1ccc([C@H](CO)NC(=O)c2cnc3c(c2)CN(C[C@@H]2CC[C@@H](C(F)(F)F)OC2)[C@H]3C(C)C)cc1` [Compound 2], in data set [1], the inhibitory constant (Ki) was less than 100 nM. This compound displayed a half-maximal inhibitory concentration (IC50) in data set [2] of less than 100 nM. As for `CCS(=O)(=O)c1ccc(C(C)(CO)NC(=O)c2cnc3c(c2)CN(C[C@H]2CC[C@H](C(F)(F)F)CC2)[C@H]3C(C)C)cc1` (some centres unmarked) [Compound 7], in data set [1], the Ki is less than 100 nM. On to `CCS(=O)(=O)c1ccc([C@H](CO)NC(=O)c2cnc3c(c2)CN(C[C@@H]2CC[C@@H](C(F)(F)F)CO2)[C@H]3C(C)C)cc1` [Compound 14], for which the inhibitory constant (Ki) in data set [1] is less than 100 nM. The same compound came in with a half-inhibitory concentration (IC50) in data set [2] of less than 100 nM. For the compound `CCS(=O)(=O)c1ccc([C@H](CO)NC(=O)c2cnc3c(c2)CN(CC(F)(F)F)[C@@H]3Cc2ccccc2)cc1` [Compound 19], the Ki in data set [1] was less than 100 nM. On the same count and under the same terms, for `CCS(=O)(=O)c1ccc([C@H](CO)NC(=O)c2cnc3c(c2)CN(CC(F)(F)F)[C@H]3Cc2ccccc2)cc1` [Compound 22] the value was less than 100 nM; for `CCS(=O)(=O)c1ccc([C@H](CO)NC(=O)c2cnc3c(c2)CN(C[C@H]2CC[C@H](C(F)(F)F)CC2)C3C(F)(F)F)cc1` (some centres unmarked) [Compound 23], less than 100 nM.

On to `CC[C@H]1c2ncc(C(=O)N[C@@H](CO)c3ccc(S(C)(=O)=O)cc3)cc2CN1C[C@H]1CC[C@H](C(F)(F)F)CC1` [Compound 24], for which, in data set [1], the Ki is less than 100 nM. This compound gave a half-inhibitory concentration (IC50) in data set [2] of less than 100 nM. Turning to `CCS(=O)(=O)c1ccc([C@H](CO)NC(=O)c2cnc3c(c2)CN(C[C@H]2CC[C@H](C(F)(F)F)CC2)[C@H]3C)cc1` [Compound 26], the inhibitory constant (Ki) in data set [1] was less than 100 nM. The same measure, in the same setting: next, `CCS(=O)(=O)c1ccc([C@H](CO)NC(=O)c2cnc3c(c2)CN(C[C@H]2CC[C@H](C(F)(F)F)CC2)[C@H]3CC2CCOCC2)cc1` [Compound 27]: less than 100 nM; `CCS(=O)(=O)c1ccc([C@H](CO)NC(=O)c2cnc3c(c2)CN(C[C@H]2CC[C@H](C(F)(F)F)CC2)[C@@H]3C)cc1` [Compound 28]: more than 1000 nM; `CCS(=O)(=O)c1ccc([C@@H](NC(=O)c2cnc3c(c2)CN(C[C@H]2CC[C@H](C(F)(F)F)CC2)[C@H]3C(C)C)[C@@H](C)O)cc1` [Compound 29]: 100 to 1000 nM. On the same count and under the same terms, for `CCS(=O)(=O)c1ccc([C@@H](NC(=O)c2cnc3c(c2)CN(C[C@H]2CC[C@H](C(F)(F)F)CC2)[C@H]3C(C)C)[C@@H](C)O)cc1` [Compound 30] the value was 100 to 1000 nM; for `CCS(=O)(=O)c1ccc([C@H](CO)NC(=O)c2cnc3c(c2)CN(C[C@H]2CC[C@H](C(F)(F)F)CC2)[C@H]3C2CCOCC2)cc1` [Compound 31], less than 100 nM. In data set [3], `CC[C@H]1c2ncc(C(=O)N[C@@H](CO)c3ccc(S(=O)(=O)CC)cn3)cc2CN1C[C@H]1CC[C@H](C(F)(F)F)CC1` [Compound 33] returned an inhibition at 3 µM of 29.1%. In the case of `CCS(=O)(=O)c1ccc([C@H](CO)NC(=O)c2cnc3c(c2)CN(C[C@H]2CC[C@H](C(F)(F)F)CC2)[C@H]3Cc2ccccc2)cc1` [Compound 37], the inhibition constant (Ki) in data set [1] was less than 100 nM. As to `CC[C@H]1c2ncc(C(=O)N[C@@H](CO)c3ccc(S(=O)(=O)CC)cc3)cc2CN1C[C@H]1CC[C@H](C(F)(F)F)CC1` [Compound 41, (S)-7-ethyl-N—((R)-1-(4-(ethylsulfonyl)phenyl)-2-hydroxyethyl)-6-((trans-4-(trifluoromethyl)cyclohexyl)methyl)-6,7-dihydro-5H-pyrrolo[3,4-b]pyridine-3-carboxamide], 3 µM produced 7.7% inhibition in data set [3].

Consider `CCO[C@H]1CC[C@H](CN2Cc3cc(C(=O)N[C@@H](CO)c4ccc(S(=O)(=O)CC)cc4)cnc3[C@@H]2C(C)C)CC1` [Compound 43], for which the inhibition constant Ki in data set [1] is less than 100 nM. As for `CCS(=O)(=O)c1ccc([C@@H](CO)NC(=O)c2cnc3c(c2)CN(C[C@H]2CC[C@H](C(F)(F)F)CC2)[C@H]3C(C)C)nc1` [Compound 44], in data set [3], the inhibition at 3 µM came out at 28.6%. Take `CCS(=O)(=O)c1ccc([C@H](CO)NC(=O)c2cnc3c(c2)CN(C[C@H]2CC[C@H](C(F)(F)F)CC2)[C@H]3C(C)C)cc1` [Compound 46, (S)—N—((R)-1-(4-(ethylsulfonyl)phenyl)-2-hydroxyethyl)-7-isopropyl-6-((trans-4-(trifluoromethyl)cyclohexyl)methyl)-6,7-dihydro-5H-pyrrolo[3,4-b]pyridine-3-carboxamide]: the Ki in data set [1] was less than 100 nM. In addition, at 3 µM the inhibition in data set [3] was 44.3%. Regarding `CCS(=O)(=O)c1ccc([C@@H](CO)NC(=O)c2cnc3c(c2)CN(C[C@H]2CC[C@H](C(F)(F)F)CC2)[C@H]3C(C)C)cc1` [Compound 47], in data set [1], the inhibition constant (Ki) was less than 100 nM.

Usually Ki stands for the equilibrium dissociation constant of an inhibitor or competing ligand from its target. The IC50 is the concentration that gives 50% inhibition. Read a high IC50 as a need for much substance. As usually defined, the inhibition is the share of the control response that was lost under treatment.

The values above are taken from patent US9796710B2, “Dihydropyrrolopyridine inhibitors of ROR-gamma” (Vitae Pharmaceuticals, Inc., priority 2014, dated 2017).
